Where no end group is shown, it is not given here.
Columns and labels:
[1] = tested on: HMW-MAA-transfected M14 melanoma cells; experiment: Immunogenicity in BALB/c mice: reactivity of sera with HMW-MAA-transfected and mock-transfected M14 melanoma cells in ELISA and FACS; assay type: in vivo; settings: sera day 28; ELISA and FACS analysis
Experimental: FIGS. 4A and 4B are graphical depictions of the immunogenicity of peptide PMK2-23H3 in BALB/c mice. Sera harvested before immunization (circle) and on days 7 (square) and 28 (triangle) after immunization from BALB/c mice immunized with anti-id mAb-derived peptide PMK2-23H3 were tested for their reactivity in ELISA with the immunizing peptide (closed symbols, left panel of FIG. 4A) and with HMW-MAA-derived peptide PHMW.D2.7 (open symbols, right panel of FIG. 4A). Sera harvested before immunization (circles) and on day 28 (triangles) were tested in ELISA (left panel in FIG. 4B) with HMW-MAA-transfected M14#5 cells (closed symbols) and with their mock-transfected counterparts (open symbols, left panel in FIG. 4B). […]
Immunizations were given subcutaneously to 8-week-old female BALB/c mice (obtained from Taconic Farms, Germantown, N.Y.) (5 per group) on day 0, 21, and 42. […] They were tested for reactivity with the immunizing peptide coated on 96-well plates (Temponi, et al. (1989) Hybridoma. 8, 85-95) and with HMW-MAA-bearing melanoma cells in ELISA and fluorescence-activated cell sorting (FACS) analysis using conventional techniques as previously described (Chen, et al. (1991) J. Immunol. 147, 1082-1090).

[2] = tested on: mAb 763.74; experiment: Inhibition by peptides of binding of biotinylated mAb 763.74 to HMW-MAA-bearing Colo38 melanoma cells; settings: for Inhibition of binding of mAb 763.74 to HMW-MAA-bearing melanoma cells: Colo38 cells, escalating peptide concentrations, FIG. 3; for IC50 for inhibition of mAb 763.74 binding: biotinylated mAb 763.74 incubated with peptide at 4° C. overnight, then Colo38 cells 1 h at 4° C., read-out: Dissociation constant (Kd), molar concentration of the peptide required to cause a 50% inhibition of binding of biotinylated mAb 763.74 to Colo38 cells
Experimental: FIG. 3 is a graphical depiction of dose-dependent inhibition by anti-id mAb MK2-23H3-derived peptide PMK2-23H3 of binding of mAb 763.74 to HMW-MAA-bearing Colo38 melanoma cells. Peptides PHMW.D2.7 (HMW-MAA-derived), PMK2-23H3 (anti-id mAb MK2-23H3-derived), and an irrelevant control peptide Pb2m (β2-microglobulin-derived) at increasing concentrations were incubated with biotinylated mAb 763.74 (0.5 μg/ml) and assayed as described in Example 2. Results of one of three representative experiments are shown.
PMK2-23H3, PMK2-23L1, and PHMW-MAA.D2.7 were synthesized by N.C. Wang, Hospital for Sick Children, Toronto, ON, Canada. A synthetic peptide derived from β2-microglobulin (Pb2m, KNGERIEKVEHS SEQ ID NO:4), used as a negative control, was purchased from University of Georgia Molecular Genetics Instrumentation Facility (Athens, Ga.). mAb 763.74 was purified from ascitic fluid by sequential ammonium sulphate and caprylic acid precipitation (Temponi, et al. (1989) Hybridoma. 8, 85-95). The purity and activity of mAb preparations were assessed by SDS-PAGE and by testing with the corresponding antigen in a binding assay, respectively. Biotinylation was performed using NHS-LC-biotin (Pierce, Rockford, Ill.) according to the manufacturer's instructions.)
Escalating concentrations of peptides were incubated with biotinylated mAb 763.74 ([…]) at 4° C. overnight in U-bottom 96-well plates. The mixture was then incubated with HMW-MAA-bearing melanoma cells Colo38 (10^5/well) for 1 h at 4° C. After three washes with 1% bovine serum albumin in phosphate buffered saline, an optimal amount of horseradish peroxidase-conjugated streptavidin was added. Reactions were then developed and visualized with the TMB substrate system (KPL, Gaithersburg, Md.). Reactions were reported as optical density (O.D.) measured with an ELISA reader. Percent inhibition was calculated by the formula: 100%×(O.D.irrelevant peptide−O.D.test peptide)/O.D.irrelevant peptide. Dissociation constant (Kd) was calculated as the molar concentration of the peptide required to cause a 50% inhibition of binding of biotinylated mAb 763.74 to HMW-MAA-bearing melanoma cells Colo38 (Temponi, et al. (1992) Cancer Res. 52, 2497-2503).

[3] = tested on: peptides PMK2-23H3, PHMW.D2.7 and anti-id mAb MK2-23; experiment: Immunogenicity in BALB/c mice: reactivity of sera in peptide binding ELISA; assay type: in vivo; settings: peptide conjugated to KLH with Freund adjuvant; for Reactivity of sera from immunized mice with HMW-MAA-derived peptide PHMW.D2.7 / Reactivity of sera from immunized mice with peptide PMK2-23H3: s.c. day 0, 21, 42, sera day 7 and 28, ELISA
Experimental: FIGS. 4A and 4B are graphical depictions of the immunogenicity of peptide PMK2-23H3 in BALB/c mice. Sera harvested before immunization (circle) and on days 7 (square) and 28 (triangle) after immunization from BALB/c mice immunized with anti-id mAb-derived peptide PMK2-23H3 were tested for their reactivity in ELISA with the immunizing peptide (closed symbols, left panel of FIG. 4A) and with HMW-MAA-derived peptide PHMW.D2.7 (open symbols, right panel of FIG. 4A). Sera harvested before immunization (circles) and on day 28 (triangles) were tested in ELISA (left panel in FIG. 4B) with HMW-MAA-transfected M14#5 cells (closed symbols) and with their mock-transfected counterparts (open symbols, left panel in FIG. 4B). Sera harvested on day 28 were tested by FACS analysis (right panel in FIG. 4B, open profiles) with HMW-MAA-transfected M14#5 cells (M14#5/HMW) and with their mock-transfected counterparts (M14#5/neo). Preimmune sera (filled profile) were used as controls.
Immunizations were given subcutaneously to 8-week-old female BALB/c mice (obtained from Taconic Farms, Germantown, N.Y.) (5 per group) on day 0, 21, and 42. Sera were harvested before immunization and on day 7 and 28. They were tested for reactivity with the immunizing peptide coated on 96-well plates (Temponi, et al. (1989) Hybridoma. 8, 85-95) and with HMW-MAA-bearing melanoma cells in ELISA and fluorescence-activated cell sorting (FACS) analysis using conventional techniques as previously described (Chen, et al. (1991) J. Immunol. 147, 1082-1090).

[4] = Solubility of peptide, as noted for the peptide binding assays; assay type: physicochemical
Experimental: Peptide PMK2-23H3, which was based on the H3 loop of anti-id mAb MK2-23 encompassing the HMW-MAA-homologous amino acid sequence (FIG. 1) was analyzed for reactivity with the HMW-MAA-specific idiotypic mAb 763.74. […] The peptide SVEYYGSSLMQ (designated as PMK2-23L1), which was derived from the L1 loop of anti-id mAb MK2-23 encompassing the described HMW-MAA-homologous a.a. sequence, was also synthesized.

Row | Sequence | Reactivity of sera from immunized mice with HMW-MAA-transfected M14 melanoma cells (M14.HMW-MAA) [1] | Reactivity of sera from immunized mice with mock-transfected M14 cells (M14.neo) [1] | Inhibition of binding of mAb 763.74 to HMW-MAA-bearing melanoma cells [2] | IC50 for inhibition of mAb 763.74 binding [2] | Reactivity of sera from immunized mice with HMW-MAA-derived peptide PHMW.D2.7 [3] | Reactivity of sera from immunized mice with peptide PMK2-23H3 [3] | Reactivity of sera from immunized mice with anti-id mAb MK2-23 ([3]; s.c., peptide binding assay) | Solubility [4]
1 | ARSNYVGYHVRWYFD [PMK2-23H3, identical to a portion of the H3 loop of anti-id mAb MK2-23] | reacted | did not react | inhibits the binding | 871 nM | reacted | reacted | reacted | –
2 | IRSGDEVHYHVTAGPRW [PHMW-MAA.D2.7, IRSGDEVHYHV TAGPRW, identical to a region of HMW-MAA with partial homology to the H3 loop of MK2-23] | – | – | – | 900 nM | – | – | – | –
3 | KNGERIEKVEHS (human; Beta 2-microglobulin peptide) [Pb2m, reference compound] | – | – | no detectable effect | – | no detectable reactivity | no detectable reactivity | – | –
4 | SVEYYGSSLMQ [PMK2-23L1, SVEYYGSSLMQ] | – | – | – | – | – | – | – | low solubility

Source: US7887822B2, “Peptides for stimulating an immune response against melanoma” (Health Research, Inc., priority 2005, dated 2011)
